Assay: Chemical stability in temperature and humidity-controlled chamber (Example 2)
Format: physicochemical
Parameters: key to Appearance: U: unchanged
Description: Chemical stability was assessed for two different samples of 5-[(Z)-(5-fluoro-2-oxo-1,2-dihydro-3H-indol-3-ylidene)methyl]-N-[(2S)-2-hydroxy-3-morpholin-4-ylpropyl]-2,4-dimethyl-1H-pyrrole-3-carboxamide maleate salt, polymorph Form 1. Samples were maintained in a temperature and humidity-controlled chamber at 25° C. and 60% relative humidity (Tables 7 and 8) or at 40° C. and 75% relative humidity (Tables 9 and 10). At various time intervals, material was removed and tested for maleate counterion assay, impurities, water content and enantiomeric purity.
The maleate counterion assay was determined by ion exchange chromatography (IEC).
A suitable amount of the maleate salt is dissolved in water (Milli Q grade) and analyzed by IEC, and compared to calibration samples. Under these conditions, the peak due to maleic acid has a retention time of about 11 minutes. The amount of maleic acid in the sample is calculated as: % Assay=(Cs/W)×100 where Cs is the concentration of maleic acid found in the sample, and W is the theoretical sample concentration in the aqueous solution.
The amounts of impurities and degradation products were determined by HPLC, using a Perkin Elmer LC 200 system with a diode array detector. The analytical column was a Waters Xterra RP18, 5 μm, 250×4.6 mm, and the guard column was a Waters Xterra RP18, 5 μm, 20×3.9 mm. Mobile phase A was a mixture of 90% 0.05 M ammonium acetate buffer at pH 5.5 and 10% acetonitrile. Mobile phase B was a mixture of 10% 0.05 M ammonium acetate buffer at pH 5.5 and 90% acetonitrile.
Flow rate was 1 mL/min, injection volume 30 μL, room temperature, 435 nm detection. Under these conditions, the peak due to the maleate salt has a retention time of about 24 minutes. Impurities are characterized by their relative retention time (RRT). The impurity at RRT=0.26 is the E isomer. The other impurities were not characterized.
Enantiomeric purity was determined by HPLC, using a Chiralpak AD analytical column, 10 μm, 250×4.6 mm (Daicel Chemical Industries, Ltd.) using an oven temperature of 30° C., a mobile phase of 2-propanol/heptane/diethylamine (50/50/0.1), an isocratic elution mode, a flow rate of 0.5 mL/min, injection volume of 50 μL, detector wavelength of 265 nm, dilution solvent 2-propanol/heptane (50/50) and a sample concentration of 0.3 mg/mL. Under these conditions, the S isomer has a retention time of about 15.5 minutes, and the R isomer has a retention time of about 22 minutes.
Water content was determined according to USP 25, <921>, Method Ic.

[1] = 25° C. and 60% Relative Humidity, 1 mo.
[2] = 25° C. and 60% Relative Humidity, 3 mo.
[3] = 25° C. and 60% Relative Humidity, 6 mo.
[4] = 25° C. and 60% Relative Humidity, 9 mo.
[5] = 25° C. and 60% Relative Humidity, 12 mo.
[6] = 25° C. and 60% Relative Humidity, Initial
[7] = 40° C. and 75% Relative Humidity, 1 mo.
[8] = 40° C. and 75% Relative Humidity, 3 mo.
[9] = 40° C. and 75% Relative Humidity, 6 mo.
[10] = 40° C. and 75% Relative Humidity, Initial

Cc1[nH]c(/C=C2\C(=O)Nc3ccc(F)cc32)c(C)c1C(=O)NC[C@H](O)CN1CCOCC1 [Sample A, 5-[(Z)-(5-fluoro-2-oxo-1,2-dihydro-3H-indol-3-ylidene)methyl]-N-[(2S)-2-hydroxy-3-morpholin-4-ylpropyl]-2,4-dimethyl-1H-pyrrole-3-carboxamide]
Appearance [1]: U^a
Assay (% free base equivalent) [1]: 97.5 % free base equivalent
Enantiomeric Purity (%) [1]: >99.9%
Impurities (%) RRT 0.26 [1]: 0.28%
Impurities (%) RRT 0.51 [1]: 0.41%
Impurities (%) RRT 0.71 [1]: 0.06%
Impurities (%) RRT 1.53 [1]: 0.11%
Impurities (%) RRT 1.74 [1]: 0.10%
Impurities (%) RRT 1.84 [1]: 0.13%
Total Impurities (%) [1]: 1.09%
Water Content (%) [1]: 0.53%
Appearance [2]: U^a
Assay (% free base equivalent) [2]: 98.4 % free base equivalent
Enantiomeric Purity (%) [2]: >99.9%
Impurities (%) RRT 0.26 [2]: 0.05%
Impurities (%) RRT 0.51 [2]: 0.40%
Impurities (%) RRT 1.53 [2]: 0.12%
Impurities (%) RRT 1.74 [2]: 0.09%
Impurities (%) RRT 1.84 [2]: 0.12%
Total Impurities (%) [2]: 0.78%
Water Content (%) [2]: 0.68%
Appearance [3]: U^a
Assay (% free base equivalent) [3]: 98.4 % free base equivalent
Enantiomeric Purity (%) [3]: >99.9%
Impurities (%) RRT 0.26 [3]: 0.07%
Impurities (%) RRT 0.51 [3]: 0.42%
Impurities (%) RRT 1.53 [3]: 0.12%
Impurities (%) RRT 1.74 [3]: 0.09%
Impurities (%) RRT 1.84 [3]: 0.12%
Total Impurities (%) [3]: 0.82%
Water Content (%) [3]: 0.46%
Appearance [4]: U^a
Assay (% free base equivalent) [4]: 98.4 % free base equivalent
Enantiomeric Purity (%) [4]: >99.9%
Impurities (%) RRT 0.26 [4]: 0.15%
Impurities (%) RRT 0.51 [4]: 0.36%
Impurities (%) RRT 1.53 [4]: 0.12%
Impurities (%) RRT 1.74 [4]: 0.07%
Impurities (%) RRT 1.84 [4]: 0.10%
Total Impurities (%) [4]: 0.77%
Water Content (%) [4]: 0.42%
Appearance [5]: U^a
Assay (% free base equivalent) [5]: 98.2 % free base equivalent
Enantiomeric Purity (%) [5]: >99.9%
Impurities (%) RRT 0.26 [5]: 0.06%
Impurities (%) RRT 0.51 [5]: 0.33%
Impurities (%) RRT 1.53 [5]: 0.13%
Impurities (%) RRT 1.74 [5]: 0.07%
Impurities (%) RRT 1.84 [5]: 0.11%
Total Impurities (%) [5]: 0.70%
Water Content (%) [5]: 0.74%
Assay (% free base equivalent) [6]: 98.7 % free base equivalent
Enantiomeric Purity (%) [6]: >99.9%
Impurities (%) RRT 0.26 [6]: 0.09%
Impurities (%) RRT 0.51 [6]: 0.40%
Impurities (%) RRT 0.71 [6]: 0.05%
Impurities (%) RRT 1.53 [6]: 0.10%
Impurities (%) RRT 1.74 [6]: 0.09%
Impurities (%) RRT 1.84 [6]: 0.10%
Total Impurities (%) [6]: 0.83%
Water Content (%) [6]: 0.55%
Appearance [7]: U^a
Assay (% free base equivalent) [7]: 97.9 % free base equivalent
Enantiomeric Purity (%) [7]: 100.00%
Impurities (%) RRT 0.26 [7]: 0.29%
Impurities (%) RRT 0.51 [7]: 0.39%
Impurities (%) RRT 1.53 [7]: 0.11%
Impurities (%) RRT 1.74 [7]: 0.08%
Impurities (%) RRT 1.84 [7]: 0.13%
Total Impurities (%) [7]: 1.00%
Water Content (%) [7]: 0.57%
Appearance [8]: U^a
Assay (% free base equivalent) [8]: 98.5 % free base equivalent
Enantiomeric Purity (%) [8]: 100.00%
Impurities (%) RRT 0.26 [8]: 0.05%
Impurities (%) RRT 0.51 [8]: 0.40%
Impurities (%) RRT 1.53 [8]: 0.14%
Impurities (%) RRT 1.74 [8]: 0.08%
Impurities (%) RRT 1.84 [8]: 0.12%
Total Impurities (%) [8]: 0.80%
Water Content (%) [8]: 0.69%
Appearance [9]: U^a
Assay (% free base equivalent) [9]: 98.0 % free base equivalent
Enantiomeric Purity (%) [9]: 100.00%
Impurities (%) RRT 0.26 [9]: 0.07%
Impurities (%) RRT 0.51 [9]: 0.40%
Impurities (%) RRT 1.53 [9]: 0.15%
Impurities (%) RRT 1.74 [9]: 0.07%
Impurities (%) RRT 1.84 [9]: 0.12%
Total Impurities (%) [9]: 0.81%
Water Content (%) [9]: 0.42%
Assay (% free base equivalent) [10]: 98.7 % free base equivalent
Enantiomeric Purity (%) [10]: 100.00%
Impurities (%) RRT 0.26 [10]: 0.09%
Impurities (%) RRT 0.51 [10]: 0.40%
Impurities (%) RRT 0.71 [10]: 0.05%
Impurities (%) RRT 1.53 [10]: 0.10%
Impurities (%) RRT 1.74 [10]: 0.09%
Impurities (%) RRT 1.84 [10]: 0.10%
Total Impurities (%) [10]: 0.83%
Water Content (%) [10]: 0.55%

Reference: US7247627B2, “Salts and polymorphs of a pyrrole-substituted indolinone compound” (Pharmacia & Upjohn Company, priority 2003, dated 2007)
